US20050197634A1, “Methods for coating and impregnating medical devices with antiseptic compositions” (Board of Regents, The University of Texas System, priority 2004, published 2005)

Experiments:
Pseudomonas aeruginosa = assay: Zones of inhibition of impregnated device segments, modified Kirby-Bauer technique; type: cell-based; settings: gentian violet after impregnating surfaces of various polymers incl. polyvinylchloride
Protocol: (§1) In Vitro antimicrobial activity. The antimicrobial activity of impregnated catheters was evaluated in duplicate by a modified Kirby-Bauer technique. BBL Mueller Hinton II agar plates (obtained from Fisher Scientific) were inoculated with 0.5 McFarland of the appropriate microorganism (hospital isolates from the MD Anderson Cancer Center). Then 10 mm segments of impregnated devices were embedded in the inoculated plates and placed in an incubator at about 37° C. for at least 18 hours. Zones of inhibition were measured perpendicular to the long axis of the device.
(§2) Anti-microbial activity of GND-ETT and GND-UC segments was assessed by modified Kirby-Bauer method. Segments were embedded in Mueller Hinton agar plates inoculated with one of the following organisms: Candida albicans (CA), vancomycin resistant enterococci (VRE), E. coli (EC), Candida parapsilosis(CP), methicillin resistant S. aureus (MRSA) or Pseudomonas aeruginosa (PS). Plates were incubated at 37° C. Zones of inhibition (ZOI) created by impregnated segments were measured in mm.
(§3) GND-ETT and GND-UC were immersed in sterile pooled bronchoalveolar lavage (BAL) or urine, respectively, and incubated at 37° C. BAL and urine were changed weekly and ZOI were determined in duplicate at weekly intervals.

S. epidermis = settings: in vitro study, gentian violet alone; cited from earlier work
[1] = test system: Candida parapsilosis (C. Parap.1-100-0022); assay: Zones of inhibition of impregnated device segments, modified Kirby-Bauer technique; type: cell-based; settings: in words
Protocol: as §1, §2, §3

[2] = test system: Methicillin resistant Staph. aureus (MRSA2066); assay: as above; type: cell-based; settings: in words
Protocol: as §1, §2, §3

[3] = test system: various nosocomial pathogens; assay: In vitro zones of inhibition of coated or impregnated catheter devices and sutures; type: cell-based; settings: coating or impregnating catheter devices and sutures
Protocol: as §1

Alcaligenes faecalis = assay: Zones of inhibition of impregnated PVC tubes; type: cell-based; settings: in words
Protocol: as §1

[4] = sutures, compared with Genlenol

Compound: CN(C)c1ccc(C(=C2C=CC(=[N+](C)C)C=C2)c2ccc(N(C)C)cc2)cc1 [GV, Gentian violet]
- activity against Pseudomonas aeruginosa, agent on its own (Pseudomonas aeruginosa): no activity
- colonization of S. epidermis on impregnated CSF silicone shunt surfaces (S. epidermis): prevent the colonization

Compound: CC(C)(C)CC(C)(C)c1ccc([O-])c(Cc2ccc(Cl)cc2Cl)c1.CN(C)c1ccc(C(=C2C=CC(=[N+](C)C)C=C2)c2ccc(N(C)C)cc2)cc1 [Genfoctol]
- zones against C. parapsilosis [1, 4]: much larger zones
- zones against MRSA [2, 4]: much larger zones
- in vitro zones of inhibition against various nosocomial pathogens [3]: large in vitro zones of inhibition

Compound: CN(C)c1ccc(C(=C2C=CC(=[N+](C)C)C=C2)c2ccc(N(C)C)cc2)cc1.Cc1cc([O-])cc(C)c1Cl [Genlenol]
- zones of inhibition against C. parapsilosis ([1]; PVC tubes and PVC catheters): Improvements
- zone against C. parapsilosis ([1]; silicone catheter): large zone
- zone against MRSA ([2]; silicone catheter): increased the zone against MRSA considerably
- in vitro zones of inhibition against various nosocomial pathogens [3]: large in vitro zones of inhibition
- zones of inhibition against Alcaligenes faecalis (Alcaligenes faecalis): to a large extent

Compound: CN(C)c1ccc(C(=C2C=CC(=[N+](C)C)C=C2)c2ccc(N(C)C)cc2)cc1.[O-]c1cc(Cl)ccc1Oc1ccc(Cl)cc1Cl [Genlosan]
- in vitro zones of inhibition against various nosocomial pathogens [3]: large in vitro zones of inhibition

Compound: Cc1cc(O)cc(C)c1Cl [PCMX, p-chloro-m-xylenol; 4-chloro-3,5-dimethylxylenol, reference compound]
- in vitro zones of inhibition against various nosocomial pathogens [3]: Neither the neutral form of PCMX nor its sodium salt could produce in vitro zones of inhibition

Compound: [H]/N=C(\N/C(=N/[H])NCCCCCCNC(=N)NC(=N)Nc1ccc(Cl)cc1)Nc1ccc(Cl)cc1 [chlorhexidine]
- activity against Pseudomonas aeruginosa, agent on its own (Pseudomonas aeruginosa): not highly active
